Each structure is given as a SMILES string.

Our source for the AC50 values is ChEMBL document CHEMBL5291721, “A preclinical secondary pharmacology resource illuminates target-adverse drug reaction associations of marketed drugs” (Nat Commun, 2023).

Some targets named below: Histamine H3 receptor (Homo sapiens, UniProt Q9Y5N1); Vasopressin V2 receptor (Homo sapiens, UniProt P30518); Cannabinoid receptor 1 (Homo sapiens, UniProt P21554); Mu-type opioid receptor (Homo sapiens, UniProt P35372).
Experiment [1] deals with T1, Muscarinic acetylcholine receptor M2 (Homo sapiens, UniProt P08172).
T1 sequence (P08172 whole entry): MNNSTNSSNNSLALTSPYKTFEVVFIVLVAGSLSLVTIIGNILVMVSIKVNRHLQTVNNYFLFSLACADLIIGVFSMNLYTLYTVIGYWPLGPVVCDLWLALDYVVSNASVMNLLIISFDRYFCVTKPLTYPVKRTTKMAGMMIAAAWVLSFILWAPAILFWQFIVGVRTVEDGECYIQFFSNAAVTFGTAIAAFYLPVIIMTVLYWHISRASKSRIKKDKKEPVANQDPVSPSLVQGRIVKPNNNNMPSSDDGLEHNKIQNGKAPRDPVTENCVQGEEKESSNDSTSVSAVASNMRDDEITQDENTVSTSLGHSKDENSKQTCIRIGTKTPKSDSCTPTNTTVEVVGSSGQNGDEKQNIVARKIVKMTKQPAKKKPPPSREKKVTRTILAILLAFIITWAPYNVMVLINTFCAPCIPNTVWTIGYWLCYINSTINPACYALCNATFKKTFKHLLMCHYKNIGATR
The experiment is classed as functional, cell-based.

The target of experiment [2] is Beta-2 adrenergic receptor (Homo sapiens, UniProt P07550).
Experiment [3] concerns the target T2, Progesterone receptor (Homo sapiens, UniProt P06401).
T2 sequence (P06401 whole entry): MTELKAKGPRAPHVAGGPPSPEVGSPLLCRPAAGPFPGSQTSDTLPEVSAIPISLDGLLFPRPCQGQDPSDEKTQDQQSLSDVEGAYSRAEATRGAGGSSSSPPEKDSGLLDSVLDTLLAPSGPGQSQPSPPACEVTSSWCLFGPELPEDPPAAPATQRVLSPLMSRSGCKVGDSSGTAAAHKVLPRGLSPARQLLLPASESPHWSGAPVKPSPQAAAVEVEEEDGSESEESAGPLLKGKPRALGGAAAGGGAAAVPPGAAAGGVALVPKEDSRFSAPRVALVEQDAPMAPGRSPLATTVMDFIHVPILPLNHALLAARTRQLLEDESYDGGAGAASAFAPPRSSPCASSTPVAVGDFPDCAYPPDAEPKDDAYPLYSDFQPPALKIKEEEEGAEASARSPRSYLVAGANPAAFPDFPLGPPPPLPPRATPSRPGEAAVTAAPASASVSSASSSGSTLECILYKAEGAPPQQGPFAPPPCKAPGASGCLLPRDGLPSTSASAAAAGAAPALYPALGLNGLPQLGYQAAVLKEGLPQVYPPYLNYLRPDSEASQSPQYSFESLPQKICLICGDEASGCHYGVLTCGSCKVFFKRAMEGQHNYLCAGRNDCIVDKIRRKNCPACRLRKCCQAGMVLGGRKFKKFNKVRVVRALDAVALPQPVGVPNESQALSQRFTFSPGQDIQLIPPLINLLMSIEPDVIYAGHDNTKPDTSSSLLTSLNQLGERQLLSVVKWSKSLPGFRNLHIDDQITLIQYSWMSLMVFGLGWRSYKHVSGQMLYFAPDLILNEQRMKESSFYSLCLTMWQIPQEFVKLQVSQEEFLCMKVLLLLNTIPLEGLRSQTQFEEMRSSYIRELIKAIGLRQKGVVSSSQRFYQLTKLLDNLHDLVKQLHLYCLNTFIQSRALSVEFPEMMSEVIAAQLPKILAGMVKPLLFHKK
The experiment is classed as functional.

The target of experiment [4] is Gamma-aminobutyric acid receptor subunit alpha-1 (Rattus norvegicus, UniProt P62813).
Experiment [5] has as its target T2, Progesterone receptor. The format is functional. The source holds these as a separate data set.
Experiment [6] has as its target Prostaglandin G/H synthase 1 (Homo sapiens, UniProt P23219). The experiment is classed as functional.
Experiment [7] concerns the target T1, Muscarinic acetylcholine receptor M2.
In experiment [8] the target is T3, 5-hydroxytryptamine receptor 1A (Homo sapiens, UniProt P08908).
T3 sequence (P08908 whole entry): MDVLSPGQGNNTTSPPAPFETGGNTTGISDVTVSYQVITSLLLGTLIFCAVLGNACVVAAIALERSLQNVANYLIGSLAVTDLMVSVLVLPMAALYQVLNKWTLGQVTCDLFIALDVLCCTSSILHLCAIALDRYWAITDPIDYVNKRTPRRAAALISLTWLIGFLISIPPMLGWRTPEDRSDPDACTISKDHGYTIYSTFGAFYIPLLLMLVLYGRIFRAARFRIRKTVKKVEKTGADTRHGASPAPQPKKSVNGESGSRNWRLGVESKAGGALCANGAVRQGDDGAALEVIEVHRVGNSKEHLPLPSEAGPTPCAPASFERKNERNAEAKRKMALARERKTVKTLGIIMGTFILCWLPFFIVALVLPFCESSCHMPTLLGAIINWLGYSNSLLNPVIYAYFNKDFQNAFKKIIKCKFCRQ
The experiment is classed as functional, cell-based.

In experiment [9] the target is T4, Alpha-1A adrenergic receptor (Homo sapiens, UniProt P35348).
T4 sequence (P35348 whole entry): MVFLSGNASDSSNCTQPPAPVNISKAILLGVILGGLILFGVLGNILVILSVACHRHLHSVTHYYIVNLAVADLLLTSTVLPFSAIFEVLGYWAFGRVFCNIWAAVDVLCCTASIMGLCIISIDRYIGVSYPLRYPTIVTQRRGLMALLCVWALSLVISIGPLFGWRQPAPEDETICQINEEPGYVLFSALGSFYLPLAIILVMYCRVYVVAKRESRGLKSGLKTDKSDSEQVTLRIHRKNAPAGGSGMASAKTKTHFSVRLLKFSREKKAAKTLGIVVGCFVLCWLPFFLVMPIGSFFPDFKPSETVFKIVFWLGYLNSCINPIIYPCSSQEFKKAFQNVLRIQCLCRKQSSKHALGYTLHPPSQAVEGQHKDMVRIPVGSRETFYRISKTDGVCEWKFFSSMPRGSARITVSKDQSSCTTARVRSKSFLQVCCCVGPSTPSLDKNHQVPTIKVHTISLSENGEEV
The format is functional, cell-based.
Also: assay procedure not described here.

Prostaglandin G/H synthase 1, sequence (P23219 whole entry): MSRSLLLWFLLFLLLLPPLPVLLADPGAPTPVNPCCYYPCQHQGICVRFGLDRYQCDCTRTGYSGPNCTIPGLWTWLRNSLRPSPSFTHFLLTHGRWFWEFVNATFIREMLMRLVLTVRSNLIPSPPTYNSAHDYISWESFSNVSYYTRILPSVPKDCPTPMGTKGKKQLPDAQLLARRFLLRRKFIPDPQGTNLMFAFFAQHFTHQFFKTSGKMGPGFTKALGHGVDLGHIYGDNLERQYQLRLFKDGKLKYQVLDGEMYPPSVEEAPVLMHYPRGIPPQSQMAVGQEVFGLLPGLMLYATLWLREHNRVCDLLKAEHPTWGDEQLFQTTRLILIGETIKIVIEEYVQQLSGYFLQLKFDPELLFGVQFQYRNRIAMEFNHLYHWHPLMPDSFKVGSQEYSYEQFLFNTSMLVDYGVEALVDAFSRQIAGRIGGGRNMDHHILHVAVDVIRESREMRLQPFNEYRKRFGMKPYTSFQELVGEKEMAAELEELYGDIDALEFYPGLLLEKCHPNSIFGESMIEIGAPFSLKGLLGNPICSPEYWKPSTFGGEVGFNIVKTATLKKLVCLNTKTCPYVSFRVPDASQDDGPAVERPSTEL
Mu-type opioid receptor, sequence (P35372 whole entry): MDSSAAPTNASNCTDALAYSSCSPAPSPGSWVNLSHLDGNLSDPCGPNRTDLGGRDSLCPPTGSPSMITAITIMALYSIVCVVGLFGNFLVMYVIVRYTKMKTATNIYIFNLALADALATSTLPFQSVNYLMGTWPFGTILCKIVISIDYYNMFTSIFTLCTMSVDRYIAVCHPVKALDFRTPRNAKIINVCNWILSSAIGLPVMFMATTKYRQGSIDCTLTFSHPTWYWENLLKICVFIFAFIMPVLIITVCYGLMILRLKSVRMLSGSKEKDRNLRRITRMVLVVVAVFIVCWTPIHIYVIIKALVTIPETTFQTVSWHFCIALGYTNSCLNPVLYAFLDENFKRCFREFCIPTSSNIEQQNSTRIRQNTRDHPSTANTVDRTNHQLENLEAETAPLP
Histamine H3 receptor, sequence (Q9Y5N1 whole entry): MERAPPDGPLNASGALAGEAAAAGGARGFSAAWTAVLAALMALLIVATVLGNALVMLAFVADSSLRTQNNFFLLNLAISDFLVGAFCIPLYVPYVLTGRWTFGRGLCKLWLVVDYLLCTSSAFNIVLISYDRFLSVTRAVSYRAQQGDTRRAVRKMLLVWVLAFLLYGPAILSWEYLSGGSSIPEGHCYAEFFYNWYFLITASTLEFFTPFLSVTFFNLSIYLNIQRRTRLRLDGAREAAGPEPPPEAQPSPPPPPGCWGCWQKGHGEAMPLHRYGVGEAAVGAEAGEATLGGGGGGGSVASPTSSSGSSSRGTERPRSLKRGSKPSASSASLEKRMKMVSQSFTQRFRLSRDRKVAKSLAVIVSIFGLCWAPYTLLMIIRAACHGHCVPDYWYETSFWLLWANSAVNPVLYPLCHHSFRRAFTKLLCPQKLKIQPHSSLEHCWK
Gamma-aminobutyric acid receptor subunit alpha-1, sequence (P62813 whole entry): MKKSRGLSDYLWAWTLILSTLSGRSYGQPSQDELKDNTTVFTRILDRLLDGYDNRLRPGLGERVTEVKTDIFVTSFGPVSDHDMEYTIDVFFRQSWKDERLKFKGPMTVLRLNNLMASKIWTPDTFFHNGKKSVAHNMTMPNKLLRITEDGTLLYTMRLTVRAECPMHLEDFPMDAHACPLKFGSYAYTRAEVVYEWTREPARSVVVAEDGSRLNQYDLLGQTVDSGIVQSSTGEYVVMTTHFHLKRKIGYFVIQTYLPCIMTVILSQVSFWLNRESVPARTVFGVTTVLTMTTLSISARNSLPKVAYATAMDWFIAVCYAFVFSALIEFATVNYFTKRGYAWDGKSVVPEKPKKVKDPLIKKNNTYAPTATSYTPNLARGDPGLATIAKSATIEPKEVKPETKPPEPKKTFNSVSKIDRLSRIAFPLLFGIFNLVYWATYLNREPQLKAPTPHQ
Vasopressin V2 receptor, sequence (P30518 whole entry): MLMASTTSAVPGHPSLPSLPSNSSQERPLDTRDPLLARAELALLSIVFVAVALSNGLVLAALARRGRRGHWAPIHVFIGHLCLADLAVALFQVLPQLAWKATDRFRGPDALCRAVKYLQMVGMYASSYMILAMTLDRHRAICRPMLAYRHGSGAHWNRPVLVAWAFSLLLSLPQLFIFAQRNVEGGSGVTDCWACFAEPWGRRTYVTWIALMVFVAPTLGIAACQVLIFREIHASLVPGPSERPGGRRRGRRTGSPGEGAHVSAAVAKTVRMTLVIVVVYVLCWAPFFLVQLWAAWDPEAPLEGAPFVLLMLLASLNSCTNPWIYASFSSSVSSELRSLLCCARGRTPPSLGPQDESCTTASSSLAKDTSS
Cannabinoid receptor 1, sequence (P21554 whole entry): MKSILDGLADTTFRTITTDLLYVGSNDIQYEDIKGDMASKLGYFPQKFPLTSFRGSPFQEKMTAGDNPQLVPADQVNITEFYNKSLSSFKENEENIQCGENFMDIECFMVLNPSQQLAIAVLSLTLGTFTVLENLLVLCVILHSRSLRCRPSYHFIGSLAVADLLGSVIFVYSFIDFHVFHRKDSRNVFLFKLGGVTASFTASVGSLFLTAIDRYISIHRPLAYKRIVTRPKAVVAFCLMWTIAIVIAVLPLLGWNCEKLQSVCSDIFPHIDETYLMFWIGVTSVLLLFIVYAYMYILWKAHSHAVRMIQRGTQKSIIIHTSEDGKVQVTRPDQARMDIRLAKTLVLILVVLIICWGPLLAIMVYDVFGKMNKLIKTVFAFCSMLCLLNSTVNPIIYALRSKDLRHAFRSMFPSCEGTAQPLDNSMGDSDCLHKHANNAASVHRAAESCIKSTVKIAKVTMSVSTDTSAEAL
Beta-2 adrenergic receptor, sequence (P07550 whole entry): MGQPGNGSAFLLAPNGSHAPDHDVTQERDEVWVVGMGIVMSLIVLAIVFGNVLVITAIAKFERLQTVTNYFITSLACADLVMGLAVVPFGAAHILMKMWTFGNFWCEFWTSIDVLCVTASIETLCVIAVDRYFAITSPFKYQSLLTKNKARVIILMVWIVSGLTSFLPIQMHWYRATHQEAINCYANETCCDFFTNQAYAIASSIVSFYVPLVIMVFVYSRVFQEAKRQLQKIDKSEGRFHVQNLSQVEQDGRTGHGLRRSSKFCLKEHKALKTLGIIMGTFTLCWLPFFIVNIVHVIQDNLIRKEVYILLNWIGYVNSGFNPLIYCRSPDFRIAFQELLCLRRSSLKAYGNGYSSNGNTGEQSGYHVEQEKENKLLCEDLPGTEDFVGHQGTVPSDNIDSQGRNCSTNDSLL

As for `COc1ccc2c(c1)C(=O)N(CCc1ccc(S(=O)(=O)NC(=O)NC3CCCCC3)cc1)C(=O)C2(C)C` [GLIQUIDONE], the AC50 (in experiment [1]; in experiment [2]; on Progesterone receptor [3]; at Histamine H3 receptor; in experiment [4]; on Vasopressin V2 receptor) was over 30 µM in each case. For the same molecule, the AC50 on Progesterone receptor [5] and at Cannabinoid receptor 1 was over 30 µM in each case.

As for `COc1cc(Nc2c(C#N)cnc3cc(OCCCN4CCN(C)CC4)c(OC)cc23)c(Cl)cc1Cl` [BOSUTINIB], the half-maximal activity concentration (AC50) in experiment [2] was over 10 µM; in [6], over 30 µM; on Mu-type opioid receptor, 15.3 µM; in [7], 4.94 µM; on Cannabinoid receptor 1, over 10 µM.

With `CCN(CC)CCNC(=O)c1cc(Cl)c(N)cc1OC` [METOCLOPRAMIDE], the AC50 in [2] is over 10 µM; on Histamine H3 receptor, over 10 µM; in [4], over 10 µM; at Vasopressin V2 receptor, over 30 µM; in experiment [8], over 10 µM; on Cannabinoid receptor 1 it was over 10 µM.

On to `OCCN1CCN(CCCN2c3ccccc3C=Cc3ccccc32)CC1` [OPIPRAMOL], for which the AC50 in experiment [1] is over 30 µM; on Progesterone receptor [3] it was over 30 µM; at Histamine H3 receptor, over 30 µM; in [6] it was 27.5 µM; on Mu-type opioid receptor it was 19.4 µM; in experiment [7], 9.58 µM. The half-maximal activity concentration (AC50) at Vasopressin V2 receptor is over 30 µM; in experiment [8], over 30 µM; on Progesterone receptor [5] it was over 30 µM; in experiment [9], 1.07 µM.

Regarding `NS(=O)(=O)c1cc2c(cc1Cl)NCNS2(=O)=O` [HYDROCHLOROTHIAZIDE], the AC50 in [1] was over 10 µM; in [2], over 10 µM; at Histamine H3 receptor, over 10 µM; in experiment [4], over 10 µM; at Vasopressin V2 receptor, over 30 µM; in experiment [8], over 10 µM. At Cannabinoid receptor 1, this molecule yielded an AC50 of over 10 µM.

Take `COC(=O)[C@@H]1CC2=CC(=O)CC[C@]2(C)[C@@]23O[C@@H]2C[C@@]2(C)[C@@H](CC[C@@]24CCC(=O)O4)[C@H]13` [EPLERENONE]: the concentration at half-maximal activity (AC50) in experiment [1] is over 30 µM; in experiment [2], over 10 µM; at Histamine H3 receptor, over 30 µM; in [4], over 10 µM; on Vasopressin V2 receptor it was over 30 µM; in [8] it was over 30 µM. The concentration at half-maximal activity (AC50) at Cannabinoid receptor 1 was over 10 µM.

As for `COC(=O)N[C@H](C(=O)N1CCC[C@H]1c1nc(-c2ccc(-c3ccc(-c4c[nH]c([C@@H]5CCCN5C(=O)[C@@H](NC(=O)OC)C(C)C)n4)cc3)cc2)c[nH]1)C(C)C`, the AC50 (in experiment [1]; in [2]; on Histamine H3 receptor; in experiment [4]; on Vasopressin V2 receptor; at Progesterone receptor [5]) was over 30 µM each time. Also, at Cannabinoid receptor 1, the half-maximal activity concentration (AC50) is over 30 µM.

`NC(N)=Nc1nc(CSCCC(N)=NS(N)(=O)=O)cs1` [FAMOTIDINE]: the half-maximal activity concentration (AC50) is over 10 µM in experiment [1]; over 10 µM in experiment [2]; over 10 µM at Histamine H3 receptor; over 10 µM in experiment [4]; over 30 µM on Vasopressin V2 receptor; over 10 µM in experiment [8]. The same molecule had an AC50 at Cannabinoid receptor 1 of over 10 µM.

Take `CC(N)Cc1ccccc1` (stereo unspecified) [AMPHETAMINE]: the concentration at half-maximal activity (AC50) in [1] is over 30 µM; on Progesterone receptor [3], over 30 µM; on Histamine H3 receptor it was over 30 µM; in [4], over 10 µM; at Vasopressin V2 receptor, over 30 µM; in [8] it was over 30 µM. Also, the AC50 on Progesterone receptor [5] was over 30 µM; at Cannabinoid receptor 1 it was over 10 µM.

Regarding `COc1cc2c(cc1OC)C(=O)C(CC1CCN(Cc3ccccc3)CC1)C2` (stereo unspecified) [DONEPEZIL], the AC50 was over 10 µM in experiment [2]; 2.5 µM at Histamine H3 receptor; over 30 µM in experiment [6]; over 10 µM in experiment [4]; over 30 µM at Mu-type opioid receptor; over 30 µM at Vasopressin V2 receptor. In addition, the half-maximal activity concentration (AC50) at Cannabinoid receptor 1 is over 10 µM.

Turning to `CS(=O)(=O)c1ccc([C@@H](O)[C@@H](CO)NC(=O)C(Cl)Cl)cc1` [THIAMPHENICOL], the AC50 (in experiment [1]; in [2]; at Progesterone receptor [3]; at Histamine H3 receptor; in experiment [6]; in experiment [4]) was over 30 µM each time. Also, the half-maximal activity concentration (AC50) (on Mu-type opioid receptor; in experiment [7]; on Vasopressin V2 receptor; in [8]; on Progesterone receptor [5]; in [9]) was over 30 µM in each case.

As to `CCOC(=O)[C@H](CCc1ccccc1)N[C@@H](C)C(=O)N1CCC[C@H]1C(=O)O`, the AC50 was over 10 µM in experiment [1]; over 10 µM in [2]; over 10 µM on Histamine H3 receptor; over 10 µM in experiment [4]; over 30 µM on Vasopressin V2 receptor; over 10 µM in [8]. In addition, at Cannabinoid receptor 1, the AC50 was over 10 µM.

Turning to `CC(C)NCC(O)COc1ccc(COCCOC(C)C)cc1` (stereo unspecified) [BISOPROLOL], the half-maximal activity concentration (AC50) in [1] was over 10 µM; on Histamine H3 receptor, over 10 µM; in experiment [4], over 10 µM; on Vasopressin V2 receptor it was over 30 µM; in experiment [8], over 10 µM; on Cannabinoid receptor 1, over 10 µM.

Regarding `C[C@H]1C[C@@H]2[C@H]([C@@H](O)C[C@@]3(C)[C@H]2CC[C@]3(O)C(=O)CO)[C@@]2(C)C=CC(=O)C=C12` [METHYLPREDNISOLONE], the AC50 was over 10 µM in experiment [1]; over 10 µM in experiment [2]; over 10 µM in experiment [4]; over 10 µM at Vasopressin V2 receptor; over 10 µM in [8]; 1.3 µM at Progesterone receptor [5]. At Cannabinoid receptor 1, this molecule came in with a half-maximal activity concentration (AC50) of over 10 µM.

Turning to `CCC[C@@H]1C[C@@H](C(=O)N[C@@H]([C@H]2O[C@H](SC)[C@H](O)[C@@H](O)[C@H]2O)[C@H](C)Cl)N(C)C1` [CLINDAMYCIN], the AC50 is over 10 µM in experiment [1]; over 10 µM in experiment [2]; over 10 µM at Histamine H3 receptor; over 10 µM in experiment [4]; over 30 µM at Vasopressin V2 receptor; over 10 µM in experiment [8]. At Cannabinoid receptor 1, this molecule showed an AC50 of over 10 µM.
